{"source": "patent US20240391889A1", "about": "“ANTIMICROBIAL COMPOUNDS AND THE METHODS OF USE” (priority 2021, published 2024)", "key": {"C. albicans [1]": {"system": "C. albicans", "assay_type": "cell-based, Candida albicans", "text": "One of the most serious crises facing both new and existing antimicrobial compounds is the rapid development of resistance by pathogens to that compound, rendering it useless. This has been an issue observed with all major commercially available antimicrobial drugs and is an increasingly prevalent issue with antifungal drugs (Clatworthy et al., Nat. Chem. Biol. 3, 541-548 (2007); Wiederhold et al., Infect. Drug Resist. 10, 249-259 (2017)). The ability of C. albicans to gain resistance against RMG9-11 was evaluated using two techniques; serial and single passage. Ching et al. described a method for single passage assessment of gain of resistance, which was used here with RMG9-11 (Ching et al., Sci. Rep. 10, 8754 (2020)). Briefly, a single colony of C. albicans was incubated overnight in RPMI-MOPS. Fungal cultures were then incubated for either 24 or 48 hours with concentrations of RMG9-11 ranging from 0 to 80% MIC. […] To further solidify this finding, C. albicans were introduced to increasing concentrations of RMG9-11 through a serial passage gain of resistance assay, as described by Samuelsen et al. (Samuelsen et al., FEBS Lett. 579, 3421-3426 (2005)). […] One main difference between serial and single passage assays is in the inoculation method from one passage to the next. The single passage relies on one individual colony while the serial passage focuses on a set concentration of fungi (cells/mL). At the end of serial passage, C. albicans that had been exposed to gradually increasing concentrations of RMG9-11 were used to prepare a traditional MIC assay. In theory, if fungi had evolved resistance during serial passage with sub-MIC antifungal agent, the MIC of RMG9-11 against these fungi should increase. […] To our knowledge, this is the first evaluation of the ability of a microbe to gain resistance to a peptoid, though it has long been hypothesized that gaining resistance to peptoids is unlikely.\nA second gain of resistance through single passage was done for RMG9-11 against C. albicans following previously published methods as a confirmation of serial passage results (Ching et al., Sci. Rep. 10, 8754 (2020)). A single C. albicans colony was inoculated into RPMI-MOPS (pH 7; 5 mL) and incubated overnight (200 RPM; 37° C.). […] The following day, an MIC was performed with these cell solutions to evaluate gain of resistance after 48 hours. This assay was performed with four separate streaked plates from frozen stocks for biological replicate."}, "C. parapsilosis": {"system": "C. parapsilosis", "assay_type": "cell-based, Candida parapsilosis"}, "C. tropicalis": {"system": "C. tropicalis", "assay_type": "cell-based, Candida tropicalis"}, "[2]": {"system": "mouse fibroblast (3T3) cells", "experiment": "in vitro", "assay_type": "cell-based", "description": "(§1) The mammalian cell lines that were tested (HepG2, 3T3, and HaCat) were incubated with RMG9-11 for 72 hours and cell viability was determined via mitochondrial activity using an MTT reduction assay where viable cells reduce MTT to formazan. Toxicity is reported as the concentration of the peptoid that results in a 50% reduction in viable cells, termed toxicity dose 50% or TD50. […] SR is defined as the TD50 divided by MIC and provides a measure of the therapeutic window for a compound. Typically for most lead compounds that would continue through development and optimization, a SR of 10 is preferred while an SR of 100 is more desirable for a compound moving into preclinical animal model evaluation.\n(§2) Hepatocellular carcinoma (HepG2), mouse fibroblast (3T3), and human keratinocyte (HaCat) cells were cultured in Dulbeco modified eagle media (DMEM) containing 10% fetal bovine serum (FBS) and 1% penicillin, streptomycin, and glutamine (PSG) at 37° C. and 5% CO2. Cells were collected and adjusted to […] to 4×10^5 cells/mL in phenol-red free DMEM and plated (100 μL) 96 well plates. 2-fold serial dilutions of 10× peptoid (11.1 μL) were added to each well in triplicate. Water (vehicle) was used as a negative control. Plates were incubated at 37° C. in 5% CO2 for 72 hours. Thiazolyl blue tetrazolium bromide (MTT) was added to each well (5 mg/mL; 20 μL) and incubated for 3 hours. Media was removed, DMSO (100 μL) was added, and plates were incubated at 37° C. for 10 minutes. Plates were read on a SPECTRAMAX M5 plate reader (Abs. 570 nm). The concentration of compound resulting in a 50% reduction in growth compared to control (toxicity dose 50%; TD50) was determined using GRAFIT. This procedure was repeated three times on separate days."}, "in vitro": {"experiment": "in vitro", "assay_type": "cell-based, human", "description": "as §1, §2"}, "[3]": {"system": "human keratinocyte (HaCat) cells", "experiment": "in vitro", "assay_type": "cell-based", "description": "as §1, §2"}, "HepG2 liver cells": {"system": "HepG2 liver cells", "experiment": "in vitro", "assay_type": "cell-based", "description": "as §1, §2"}, "C. albicans [4]": {"system": "C. albicans", "assay_type": "cell-based, Candida albicans", "text": "One of the most serious crises facing both new and existing antimicrobial compounds is the rapid development of resistance by pathogens to that compound, rendering it useless. This has been an issue observed with all major commercially available antimicrobial drugs and is an increasingly prevalent issue with antifungal drugs (Clatworthy et al., Nat. Chem. Biol. 3, 541-548 (2007); Wiederhold et al., Infect. Drug Resist. 10, 249-259 (2017)). The ability of C. albicans to gain resistance against RMG9-11 was evaluated using two techniques; serial and single passage. Ching et al. described a method for single passage assessment of gain of resistance, which was used here with RMG9-11 (Ching et al., Sci. Rep. 10, 8754 (2020)). Briefly, a single colony of C. albicans was incubated overnight in RPMI-MOPS. Fungal cultures were then incubated for either 24 or 48 hours with concentrations of RMG9-11 ranging from 0 to 80% MIC. […]\nGain of resistance to RMG9-11 by C. albicans was determined using a serial passage assay following previously published methods.43 Single colonies of C. albicans from a frozen stock streak plate were added to a saline solution (0.85%) to achieve an OD530=0.15-0.25. […]", "remark": "listed apart in the source"}}, "note": "Like-named read-outs stand apart in the source and are kept apart here. Numbered stars: 1 amine (or outer) side, 2 acyl side, 3 side chain; on linkers, the order of the positions; unused ones are H or OH. Square brackets hold non-standard residues; d marks the D form. Peptide text beside a SMILES is read from it. N(tridecyl)Gly = CCCCCCCCCCCCCNCC(=O)O; X1 = CC(c1ccccc1)N(CC(=O)[*:2])[*:1]; NFurfurylGly = O=C(O)CNCc1ccco1; Gly(N(CH2)3NH2) = NCCCNCC(=O)O; Nphe = O=C(O)CNCc1ccccc1; NPrGly = CCCNCC(=O)O; Nlys = NCCCCNCC(=O)O", "data": [{"molecule": "CCCCCCCCCCCCCNCC(=O)N(CCC)CC(=O)N(CC(=O)N(CCCCN)CC(=O)N(CC(=O)N(CC(=O)N(CCCN)CC(N)=O)Cc1ccccc1)Cc1ccco1)C(C)c1ccccc1", "note": "(stereo not shown) [RMG9-11] (H-[N(tridecyl)Gly][NPrGly][X1][Nlys][NFurfurylGly][Nphe][Gly(N(CH2)3NH2)]-NH2)", "values": [{"measurement": "Single Passage 24 h MIC", "setting": "C. albicans [1]; C. albicans pre-exposed 24 h to 0% MIC RMG9-11", "result": 6.25, "unit": "µg/mL"}, {"measurement": "Single Passage 24 h MIC", "setting": "C. albicans [1]; pre-exposed 24 h to 10% MIC", "result": 6.25, "unit": "µg/mL"}, {"measurement": "Single Passage 24 h MIC", "setting": "C. albicans [1]; pre-exposed 24 h to 20% MIC", "result": 6.25, "unit": "µg/mL"}, {"measurement": "Single Passage 24 h MIC", "setting": "C. albicans [1]; pre-exposed 24 h to 40% MIC", "result": 6.25, "unit": "µg/mL"}, {"measurement": "Single Passage 24 h MIC", "setting": "C. albicans [1]; pre-exposed 24 h to 60% MIC", "result": 6.25, "unit": "µg/mL"}, {"measurement": "Single Passage 24 h MIC", "setting": "C. albicans [1]; pre-exposed 24 h to 80% MIC", "result": 6.25, "unit": "µg/mL"}, {"measurement": "Single Passage 48 h MIC", "setting": "C. albicans [1]; pre-exposed 48 h to 0% MIC", "result": 6.25, "unit": "µg/mL"}, {"measurement": "Single Passage 48 h MIC", "setting": "C. albicans [1]; pre-exposed 48 h to 10% MIC", "result": 6.25, "unit": "µg/mL"}, {"measurement": "Single Passage 48 h MIC", "setting": "C. albicans [1]; pre-exposed 48 h to 20% MIC", "result": 6.25, "unit": "µg/mL"}, {"measurement": "Single Passage 48 h MIC", "setting": "C. albicans [1]; pre-exposed 48 h to 40% MIC", "result": 6.25, "unit": "µg/mL"}, {"measurement": "Single Passage 48 h MIC", "setting": "C. albicans [1]; pre-exposed 48 h to 60% MIC", "result": 6.25, "unit": "µg/mL"}, {"measurement": "Single Passage 48 h MIC", "setting": "C. albicans [1]; pre-exposed 48 h to 80% MIC", "result": 6.25, "unit": "µg/mL"}, {"measurement": "ability of C. albicans to develop resistance", "setting": "C. albicans [1]; single passage, in words", "result": "unable to develop resistance"}, {"measurement": "MIC C. parapsilosis", "setting": "C. parapsilosis", "result": 6.25, "unit": "µg/mL"}, {"measurement": "MIC C. tropicalis", "setting": "C. tropicalis", "result": 3.13, "unit": "µg/mL"}, {"measurement": "TD50 3T3", "setting": "[2]", "result": 39, "unit": "µg/mL"}, {"measurement": "toxicity at the MIC, 3T3", "setting": "[2]", "result": "minimal"}, {"measurement": "CC50 at 72 h", "setting": "in vitro; human, HaCat human keratinocyte cells", "result": "53 ± 5", "unit": "µg/mL"}, {"measurement": "CC50 at 72 h", "setting": "in vitro; human, HepG2 hepatocellular carcinoma cells", "result": "114 ± 5", "unit": "µg/mL"}, {"measurement": "CC50 at 72 h", "setting": "in vitro; mouse, 3T3 mouse fibroblast cells", "result": "39 ± 2", "unit": "µg/mL"}, {"measurement": "TD50 HaCat", "setting": "[3]", "result": 53, "unit": "µg/mL"}, {"measurement": "toxicity at the MIC, HaCat", "setting": "[3]", "result": "minimal"}, {"measurement": "toxicity at the MIC against C. albicans, HepG2", "setting": "HepG2 liver cells", "result": "no toxicity"}, {"measurement": "Serial Passage MIC", "setting": "C. albicans [4]; Treated: serial passage with 1 to 25% MIC RMG9-11", "result": 6.25, "unit": "µg/mL"}, {"measurement": "Serial Passage MIC", "setting": "C. albicans [4]; Untreated C. albicans", "result": 6.25, "unit": "µg/mL"}]}]}
